The source of these data is patent publication US20230339878A1, “SLC26A3 INHIBITORS AND USE THEREOF” (THE REGENTS OF THE UNIVERSITY OF CALIFORNIA, priority 2018, published 2023).

Assay [1] deals with cystic fibrosis (CF) mice (ΔF508 homozygous) lacking functional CFTR. The assay can be described thus: Loperamide-induced constipation model in cystic fibrosis mice. The class given is in vivo. The settings on record: 5 mg/kg oral. The method, then: Female CD1 mice (age 8-10 weeks) were administered loperamide (0.3 mg/kg, intraperitoneally, Sigma-Aldrich) to produce constipation. Compound A1 (DRAinh-A250) (5 mg/kg, in saline containing vehicle (5% DMSO and 10% Kolliphor HS 15; Sigma-Aldrich)), tenapanor (5 mg/kg, in vehicle), both compounds (5 mg/kg each, in vehicle), or vehicle alone were administered by oral gavage 1 hour before loperamide. After loperamide injection, mice were placed individually in metabolic cages with ad libitum access to food and water. Stool samples were collected for 3 h, and total stool weight and number of fecal pellets were quantified. To measure stool water content, stool samples were dried at 80° C. for 24 h and water content was calculated as [wet weight-dry weight]/wet weight. Similar studies were done in cystic fibrosis (CF) mice (ΔF508 homozygous) lacking functional CFTR.

For assay [2], the system named is mouse mid-jejunal closed loops. Put plainly: Closed mid-jejunal loop fluid absorption in mice. The class given is in vivo. The settings on record: 10 µM intraluminal, 30 min. The method, then:
Female CD1 mice (age 8-10 weeks) were given free access to Pedialyte (per liter: Na^+ 45 mEq, Cl^- 35 mEq, K^+ 20 mEq, dextrose 25 g; Abbott, Abbot Park, IL) but not solid food for 48 h before experiments. Mice were treated with 500 µL mineral oil once a day rectally (last dose 12 h before surgeries) during this period to evacuate the colon. Closed intestinal loops were isolated as described. Mice were anesthetized with isoflurane and body temperature was maintained during surgery at 36-38° C. using a heating pad. A small abdominal incision was made to expose the distal colon, and one closed distal colonic loop (length 1.5-2 cm) was isolated with sutures in each mouse. Loops were injected with 100 µL phosphate-buffered saline (PBS, pH: 7.4, in mM: 137 NaCl, 2.7 KCl, 8 Na2HPO4, 1.8 KH2PO4, 1 CaCl2, 0.5 MgCl2) without and with 10 µM Compound A1 and/or 10 µM tenapanor (MedChemExpress, Monmouth Junction, NJ). The abdominal incision was closed with sutures, and mice were allowed to recover from anesthesia. Colonic loops were removed at 0 and 60 min (in separate mice) and loop length and weight were measured to quantify fluid absorption. Luminal fluid was emptied with a syringe and pH was measured immediately using AB15 pH Meter (Thermo Fisher Scientific, South San Francisco, CA). In separate studies, mid-jejunal loops (length 2-3 cm, 3-4 loops per mouse) were isolated as described above, injected with 100 µL PBS without or with 10 µM Compound A1 and/or 10 µM tenapanor, and excised at 0 and 30 min to measure loop length and weight.

A further assay has as its target T1, PAT-1 (slc26a6) (Mus musculus, UniProt Q8CIW6).
T1 construct: full-length slc26a6 was subcloned into pLVX-YFP-T2A-Puro as an EcoRI to XbaI fragment; host or cells: HEK293 cells infected with lentivirus, puromycin selected
T1 sequence (Q8CIW6 1-758): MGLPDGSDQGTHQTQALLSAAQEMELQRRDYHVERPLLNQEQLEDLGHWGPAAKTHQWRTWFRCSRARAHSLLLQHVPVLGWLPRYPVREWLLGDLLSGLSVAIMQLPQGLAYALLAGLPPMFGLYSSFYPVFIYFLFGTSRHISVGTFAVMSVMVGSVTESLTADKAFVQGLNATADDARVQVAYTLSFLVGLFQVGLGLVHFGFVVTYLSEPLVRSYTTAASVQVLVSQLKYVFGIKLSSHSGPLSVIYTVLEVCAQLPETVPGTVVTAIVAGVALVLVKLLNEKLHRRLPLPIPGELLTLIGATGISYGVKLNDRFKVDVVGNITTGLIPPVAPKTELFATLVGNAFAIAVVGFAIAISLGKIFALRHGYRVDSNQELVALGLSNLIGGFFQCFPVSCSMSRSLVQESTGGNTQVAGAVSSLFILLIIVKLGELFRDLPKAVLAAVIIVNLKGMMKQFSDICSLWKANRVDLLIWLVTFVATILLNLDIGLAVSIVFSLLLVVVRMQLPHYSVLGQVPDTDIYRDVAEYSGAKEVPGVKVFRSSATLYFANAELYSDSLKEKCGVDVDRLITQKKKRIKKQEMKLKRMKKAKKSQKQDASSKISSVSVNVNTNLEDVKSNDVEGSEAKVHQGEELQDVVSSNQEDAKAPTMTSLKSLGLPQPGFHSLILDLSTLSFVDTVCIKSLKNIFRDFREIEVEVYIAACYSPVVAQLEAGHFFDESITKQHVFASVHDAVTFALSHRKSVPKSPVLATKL
The assay can be described thus: Selectivity: slc26a6 Cl-/I- exchange in HEK cells. The class given is cell-based, murine. The settings on record: 10 µM.

“Also recorded” adds a separate entry of the source.

As for `Cc1c(CC(=O)O)c(=O)oc2c(C)c(OCc3cccc(Br)c3)ccc12` [Compound A1], the “efficacy in loperamide-induced constipation in CF mice” value in assay [1] is on record as “effective in loperamide-treated cystic fibrosis mice; also recorded: reduces loperamide-induced constipation”. In assay [2], the “loop weight/length ratio (fluid absorption), mid-jejunal loops” value is “did not produce significant changes; also recorded: not in jejunal loops” and the “luminal fluid pH, mid-jejunal loops” value is “did not alter acidification”. Also, the “effect on Cl-/I- exchange activity of PAT-1 (slc26a6)” value on PAT-1 (slc26a6) was “did not alter; also recorded: did not inhibit; also recorded: differences not significant”.
